Data on 23 compounds can be found in PubChem BioAssay (NCI).

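The compound was tested at five concentrations on cells cultured in 96-well plates, with a 48-hour exposure period. GI50 = concentration required for 50% inhibition of growth. TGI: concentration producing complete growth inhibition.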 Peptide text beside a SMILES is read from it. * marks the point of attachment. X26 = Clc1c(Cl)c(Cl)c(O*)c(Cl)c1Cl; Boc = CC(C)(C)OC(=O)*; OBn = c1ccc(CO*)cc1; Bn = c1ccc(C*)cc1

Among the test systems are HCT-15 colon; T-47D breast; A498 renal; RXF 393 renal; MCF7 breast; A549 NSCLC; MDA-MB-231 breast; PC-3 prostate; OVCAR-3 ovarian; LOX IMVI melanoma.
Holding throughout (assay): NCI anticancer screen, dose series, 48 h

As to `Cc1ccc2c(c1C)CC1(Cc3c(C)ccc(C)c3C1=O)C2=O` (centres undefined), the TGI with HCT-15 colon, with T-47D breast, in the assay on A498 renal, with RXF 393 renal, in the assay with MCF7 breast and in the assay on A549 NSCLC was above 100 µM each time. This compound also showed a TGI with MDA-MB-231 breast above 100 µM.

Regarding `O=C1/C(=C/c2ccc(Cl)cc2)CCCc2ccc(F)cc21`, the GI50 was 22.1 µM with HCT-15 colon; 24.2 µM with RXF 393 renal; 15.9 µM with PC-3 prostate; 16.9 µM in the assay with OVCAR-3 ovarian; 8.35 µM with MCF7 breast; 26.4 µM with A549 NSCLC. In addition, the GI50 is 14.4 µM in the assay with LOX IMVI melanoma and 19.8 µM in the assay with MDA-MB-231 breast. The TGI was above 100 µM in the assay on HCT-15 colon; 52 µM in the assay on RXF 393 renal; 48.3 µM in the assay on PC-3 prostate; 51.4 µM in the assay with OVCAR-3 ovarian; above 100 µM in the assay on MCF7 breast; above 100 µM with A549 NSCLC. The TGI in the assay with LOX IMVI melanoma turned out to be 31.8 µM; in the assay with MDA-MB-231 breast, 52.8 µM.

Take `CCC(=O)Nc1ccc(NS(=O)(=O)c2ccc(Cl)cc2)cc1`: the TGI in the assay with HCT-15 colon, in the assay on T-47D breast, in the assay on A498 renal, in the assay with RXF 393 renal, with PC-3 prostate and in the assay on OVCAR-3 ovarian was above 100 µM in each case. The TGI in the assay on MCF7 breast, in the assay on A549 NSCLC and with LOX IMVI melanoma was above 100 µM in each case.

For the compound `c1c(N2CCOCC2)ssc1=[N+]1CCOCC1`, the TGI in the assay with HCT-15 colon, in the assay on A498 renal, with RXF 393 renal, in the assay on A549 NSCLC and in the assay on LOX IMVI melanoma was above 100 µM in each case.

In the case of `CCCO/N=[N+](\[O-])N(CC)CC`, the TGI with HCT-15 colon, with A498 renal, with RXF 393 renal, in the assay with OVCAR-3 ovarian, in the assay with A549 NSCLC and in the assay on LOX IMVI melanoma was above 100 µM each time.

`Cc1cnc2[nH]c(-c3cccc(F)c3)cc(=O)c2c1`: the TGI in the assay on HCT-15 colon was 2.59 µM; with T-47D breast, above 100 µM; with RXF 393 renal, above 100 µM; in the assay with OVCAR-3 ovarian, 0.0373 µM; with A549 NSCLC it was above 100 µM; in the assay on LOX IMVI melanoma, above 100 µM. This compound yielded a TGI in the assay with MDA-MB-231 breast of 0.614 µM.

`CC(=O)N(C)c1ccc(Nc2ccnc3ccc4nn(C)nc4c23)cc1`: the TGI was 64.5 µM in the assay with HCT-15 colon; 76.1 µM in the assay with T-47D breast; 48.1 µM in the assay on RXF 393 renal; above 100 µM in the assay on PC-3 prostate; 50 µM with OVCAR-3 ovarian; 46.6 µM in the assay with MCF7 breast. The TGI was 78 µM in the assay with A549 NSCLC and 30.6 µM in the assay with LOX IMVI melanoma.

As to `CCCCCCc1cc2cc(-c3csc(-c4ccc(OC)cc4)n3)c(=O)oc2cc1O`, the TGI in the assay with HCT-15 colon came to 46.8 µM; with T-47D breast, 24.1 µM; with RXF 393 renal, 29.2 µM; with PC-3 prostate, 41.5 µM; with MCF7 breast it was 53.2 µM; in the assay on A549 NSCLC it was 32.8 µM. Moreover, the TGI was 30.4 µM in the assay with LOX IMVI melanoma and 25.3 µM with MDA-MB-231 breast.

`Oc1c(OCc2nnc(CCCCCCCCc3nnc(COc4ccc5ccccc5c4O)o3)o2)ccc2ccccc12`: the TGI in the assay with HCT-15 colon, in the assay on A498 renal, with RXF 393 renal, in the assay with PC-3 prostate, in the assay on MCF7 breast and with A549 NSCLC was above 100 µM in each case. In addition, the TGI with MDA-MB-231 breast is above 100 µM.

On to `COc1ccc(C2=C(Cl)C(=O)O/C2=C\c2ccc(OC)c(Br)c2)cc1Cl`, for which the TGI was above 100 µM in the assay with HCT-15 colon; above 100 µM with T-47D breast; 52.9 µM with A498 renal; 46.3 µM in the assay with RXF 393 renal; above 100 µM in the assay with PC-3 prostate; 47 µM in the assay with OVCAR-3 ovarian. In addition, the TGI was 46.9 µM in the assay with MCF7 breast, above 100 µM in the assay on A549 NSCLC and above 100 µM in the assay on LOX IMVI melanoma.

With `CNC(=S)NNc1ncnc2c1c(-c1ccc(Cl)cc1)cn2-c1ccc(C)cc1`, the TGI came out at 21 µM with HCT-15 colon; 24.1 µM in the assay with T-47D breast; 49.6 µM in the assay with A498 renal; 32.3 µM in the assay on RXF 393 renal; 17.9 µM with PC-3 prostate; 24 µM in the assay with OVCAR-3 ovarian. Further, the TGI with A549 NSCLC worked out at 19.2 µM; in the assay with LOX IMVI melanoma, 33.5 µM; with MDA-MB-231 breast it was 21.7 µM.

With `COc1cc(OC)cc(Oc2nc3cc(F)c(F)cc3nc2-c2ccccc2)c1`, the TGI in the assay on HCT-15 colon, in the assay with T-47D breast, with A498 renal, with RXF 393 renal, in the assay with PC-3 prostate and in the assay on OVCAR-3 ovarian was above 100 µM throughout. Further, the TGI with MCF7 breast, in the assay on A549 NSCLC and in the assay on LOX IMVI melanoma was above 100 µM each time.

`C[C@H](c1ccccc1)N1C(=O)[C@@H](OCc2ccccc2)[C@H]1[C@H](COC(=O)COCc1ccccc1)OCc1ccccc1`: the TGI in the assay with HCT-15 colon, with A498 renal, in the assay with PC-3 prostate, with OVCAR-3 ovarian, in the assay with MCF7 breast and in the assay on A549 NSCLC was above 100 µM in each case. Also, the TGI with LOX IMVI melanoma and in the assay with MDA-MB-231 breast was above 100 µM throughout.

With `N#Cc1nc(C2CCC(=O)O2)oc1N` (centres undefined), the TGI in the assay with HCT-15 colon, in the assay on A498 renal, in the assay with RXF 393 renal, in the assay on PC-3 prostate, in the assay on OVCAR-3 ovarian and in the assay on MCF7 breast was above 100 µM in each case. Moreover, the TGI with LOX IMVI melanoma and in the assay on MDA-MB-231 breast was above 100 µM each time.

Consider `Cc1ccc(S(=O)(=O)c2c(O)c3ccc(O)c(C)c3oc2=O)cc1`, for which the TGI in the assay on HCT-15 colon, in the assay with T-47D breast, with RXF 393 renal, with PC-3 prostate, in the assay on OVCAR-3 ovarian and in the assay with MCF7 breast was above 100 µM throughout. Also, the TGI in the assay on A549 NSCLC and in the assay with MDA-MB-231 breast was above 100 µM in each case.

Take `O=C1N/N=C\c2ccc(cc2)OCc2cccc(n2)COc2ccc(cc2)/C=N\NC1=O`: the TGI in the assay on HCT-15 colon, in the assay on A498 renal, in the assay on RXF 393 renal, in the assay with PC-3 prostate, in the assay on OVCAR-3 ovarian and with MCF7 breast was above 25 µM in each case. The TGI with A549 NSCLC and in the assay with MDA-MB-231 breast was above 25 µM throughout.

For the compound `CC(C)CC(NC(=O)C(CCC(=O)OCc1ccccc1)NC(=O)OC(C)(C)C)C(=O)NC(COCc1ccccc1)C(=O)NC(Cc1ccccc1)C(=O)Oc1c(Cl)c(Cl)c(Cl)c(Cl)c1Cl` (centres undefined) (Boc-E(OBn)LS(Bn)F-X26; configuration not given here), the TGI with HCT-15 colon is 51 µM; in the assay on RXF 393 renal, 63.8 µM; with PC-3 prostate, above 100 µM; with MCF7 breast, 66.3 µM; with A549 NSCLC, 96 µM; in the assay with LOX IMVI melanoma, above 100 µM. The TGI in the assay with MDA-MB-231 breast came out at 34.5 µM.

With `Cc1cccc(NS(=O)(=O)c2ccc(N=Nc3c(O)c(C(=O)O)cc4ccccc34)cc2)n1`, the TGI in the assay on HCT-15 colon, in the assay on RXF 393 renal, with PC-3 prostate, with OVCAR-3 ovarian, in the assay on MCF7 breast and in the assay on A549 NSCLC was above 100 µM in each case. The TGI in the assay on MDA-MB-231 breast was above 100 µM.

As for `C#CCOCC12C=CC(O1)C1COC(=O)C12` (centres undefined), the TGI in the assay with HCT-15 colon, with T-47D breast, with A498 renal, with RXF 393 renal, with PC-3 prostate and in the assay with OVCAR-3 ovarian was above 100 µM each time. Moreover, the TGI in the assay with A549 NSCLC, in the assay on LOX IMVI melanoma and in the assay with MDA-MB-231 breast was above 100 µM in each case.

For `C=C(C)[C@H]1CC(=O)/C(C)=C\CC/C(C)=C/CC[C@@]2(C)O[C@@H]2C1`, the TGI with HCT-15 colon was above 100 µM; in the assay with A498 renal, above 100 µM; in the assay with PC-3 prostate it was 64.5 µM; in the assay on OVCAR-3 ovarian it was 43.9 µM; with A549 NSCLC, 34.5 µM; in the assay with LOX IMVI melanoma it was 32.2 µM. Also, the TGI in the assay with MDA-MB-231 breast was above 100 µM.

`CC(=O)OC1CC2(O)C(CCC3(C)C(c4ccc(=O)oc4)CCC32O)C2(C)C1=CC(O)C1OC12` (centres undefined): the TGI was found to be 0.32 µM in the assay on HCT-15 colon; 0.582 µM in the assay with A498 renal; 0.0324 µM in the assay on RXF 393 renal; 0.0697 µM in the assay on OVCAR-3 ovarian; 0.402 µM with MCF7 breast; 0.0569 µM in the assay on A549 NSCLC. The compound also yielded a TGI with LOX IMVI melanoma of 1.02 µM.

For `O=c1c(-c2ccccc2)c(SCCN2CCCCCC2)n(-c2ccccc2)c(=S)n1-c1ccccc1`, the TGI is above 100 µM in the assay with HCT-15 colon; 56.7 µM in the assay with A498 renal; 98.6 µM with RXF 393 renal; above 100 µM in the assay on OVCAR-3 ovarian; above 100 µM with MCF7 breast; above 100 µM in the assay with LOX IMVI melanoma.

`CCOc1snc(C(Cl)(Cl)Cl)c1Cl`: the TGI is above 100 µM with HCT-15 colon; 62.8 µM in the assay with A498 renal; 27.6 µM with RXF 393 renal; above 100 µM in the assay on PC-3 prostate; 37.8 µM in the assay with OVCAR-3 ovarian; 78.9 µM in the assay with MCF7 breast. Besides, the figures for the TGI in the assay with A549 NSCLC, with LOX IMVI melanoma and with MDA-MB-231 breast were 95.4 µM, 42.8 µM and above 100 µM, respectively.
